Assay results reported in US9409944B2, “Compositions and methods for inhibiting proteases” (The Regents of the University of California, priority 2011, dated 2016).

Columns and labels:
[1] = target: beta 5 subunit (chymotrypsin-like) of the Saccharomyces cerevisiae 20S proteasome (Saccharomyces cerevisiae, UniProt P30656); experiment: Inhibition of the beta 5 subunit (chymotrypsin-like) of the 20S proteasome; type: biochemical; conditions: S. cerevisiae 20S proteasome, pure compound
Description: (§1) We discovered the new natural products, compounds having formulas 1 and 2, from a collection of marine cyanobacteria obtained from Curaçao in the Netherland Antilles. We were led to isolate this compound from cancer cell toxicity of the extract and semi-purified fractions.

[2] = system: human lung adenocarcinoma (H460) cells; experiment: Cytotoxicity to human lung adenocarcinoma (H460) cells; type: cell-based; conditions: NCI-H460
Description: as §1

| SMILES | IC50 [1] [nM] | EC50 [2] [nM] |
| --- | --- | --- |
| CCCCCC(=O)N[C@H](C(=O)N[C@@H](CC[S+](C)[O-])C(=O)N[C@@H](CC(C)C)C(=O)[C@@]1(C)CO1)C(C)C (mixture of isomers) [Compound 1] | 5.3 ± 0.5 | 14.5 |
| C[C@@]12OC(=O)[C@]1([C@@H](O)[C@@H]1C=CCCC1)NC(=O)[C@@H]2CCCl [salinosporamide A, reference compound] | 1.4 ± 0.2 | – |
